Assay results from patent US8541476B2, “Compounds for treatment of malignant tumors” (The Trustees of the University of Pennsylvania, priority 2007, dated 2013).

What was measured:
U251 cells = experiment: MIT assay, radiosensitizing effects of NS-160; assay type: cell-based, human; conditions: U251, 8 hour pretreatment, 0.2 μM, IR dose of 4 Gy
Experimental: The dose-dependent radiosensitizing effects of NS-160 were investigated using an 8 hour pretreatment of 0.02 μM, 0.2 μM, and 2.0 μM NS-160 in U251 cells (FIG. 9). […] Therefore, NS-160 can act as a true radiosensitizer at low μM concentrations.

zebrafish (ZF) embryos = experiment: Zebrafish embryo development and survival after drug plus IR; assay type: in vivo, Danio rerio
Experimental: ZF were raised in accordance with previously established protocols (McAleer, et al., 2005, J. Radiat. Oncol. Biol. Phys. 61:10-3) at the University of Pennsylvania School of Medicine. Embryos were maintained at 30° C. after transplantation procedures. The age of embryos is indicated as the hours post-fertilization (hpf) and days post-fertilization (dpf) for all experimental data shown. […] Radiat. Oncol. Biol. Phys. 61:10-3) immediately after photography at 24 hpf. […]
The radiosensitizing effects of NS-123 on human cancer cells but not normal cells prompted us to examine the potential of NS-123 in vivo. Zebra fish (ZF) (Danio rerio) embryos provide an unique vertebrate model that is ideal for the screening of therapeutic agents because of their close genetic and physiological homology to upper level vertebrates such as mammals, their rapid embryonic development, optical clarity, and suitability for investigations regarding the effects of radiation and radiosensitizers (Geiger et al., 2006, Cancer Res. 66:8172-8181; McAleer et al., 2005, Int. J. Radiat. Oncol. Biol. Phys. 61:10-13). These features allow the efficient screening of novel drugs and observation of effects on specific organs without the need for euthanization and necroscopy. The ZF embryos were pretreated for 8 hours with 5 μM NS-123 prior to 6 Gy of radiation.

Row | SMILES | radiosensitization (U251 cells) | embryonic development and viability after IR (zebrafish (ZF) embryos; 5 μM NS-123 (1 μM staurosporine) 8 hours before 6 Gy) | morphologic effects in developing ZF with IR (zebrafish (ZF) embryos; drug + IR)
1 | N#Cc1ccc(Br)c([N+](=O)[O-])c1 [NS-160, 4-bromo-3-nitrobenzonitrile] | Radiosensitization was evident |  | 
2 | CN[C@@H]1C[C@H]2O[C@@](C)([C@@H]1OC)n1c3ccccc3c3c4c(c5c6ccccc6n2c5c31)C(=O)NC4 [Staurosporine] |  | greatly diminished the viability and development | morphologic changes consistent with increased toxicity
